The record followed here is ChEMBL document CHEMBL5154870, “Discovery of novel glutaminase 1 allosteric inhibitor with 4-piperidinamine linker and aromatic heterocycles” (Eur J Med Chem, 2022).

The nature of series [1]: Metabolic stability in human plasma assessed as parent compound remaining at 1 uM measured after 2 hrs by LC-MS/MS analysis. Format: ADME, cell-free. The settings on record: read-out: Stability.
Series [2] relates to HCT-116. The series is described as follows: Antiproliferative activity against human HCT-116 cells overexpressing GLS1 assessed as inhibition of cell proliferation measured after 72 hrs by MTT assay. Format: functional, cell-based. The settings on record: HCT-116, 72 h. A general note: Tetrazolium dyes change colour on reduction, which living cells bring about.
The nature of series [3]: Metabolic stability in human liver microsomes assessed as intrinsic clearance at 10 uM by LC-MS/MS analysis. The class given is ADME, Microsome. The conditions noted are these: read-out: CLH. Background: Liver microsomes are a subcellular fraction often used to study metabolism.
Series [4] has as its target T1, Glutaminase kidney isoform, mitochondrial (Homo sapiens, UniProt O94925).
T1 sequence (O94925 whole entry): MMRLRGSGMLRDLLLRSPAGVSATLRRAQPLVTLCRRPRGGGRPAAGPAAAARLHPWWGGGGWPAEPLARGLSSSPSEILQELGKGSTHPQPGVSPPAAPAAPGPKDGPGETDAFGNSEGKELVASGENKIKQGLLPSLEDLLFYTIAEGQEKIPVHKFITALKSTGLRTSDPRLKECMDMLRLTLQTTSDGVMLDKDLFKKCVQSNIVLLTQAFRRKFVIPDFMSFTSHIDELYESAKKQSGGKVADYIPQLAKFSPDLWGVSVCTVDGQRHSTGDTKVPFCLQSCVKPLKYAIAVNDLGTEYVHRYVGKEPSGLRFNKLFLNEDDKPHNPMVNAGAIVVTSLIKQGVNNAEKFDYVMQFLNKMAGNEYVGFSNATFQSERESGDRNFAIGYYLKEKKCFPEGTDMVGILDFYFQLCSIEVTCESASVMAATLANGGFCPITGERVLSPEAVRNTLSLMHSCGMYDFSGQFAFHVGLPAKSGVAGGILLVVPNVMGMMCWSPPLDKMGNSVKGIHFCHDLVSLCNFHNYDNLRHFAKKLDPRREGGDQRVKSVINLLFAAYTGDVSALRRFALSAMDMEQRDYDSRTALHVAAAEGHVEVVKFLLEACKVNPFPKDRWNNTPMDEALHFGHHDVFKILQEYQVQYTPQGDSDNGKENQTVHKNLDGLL
The series is described as follows: Allosteric inhibition of human GLS1 using glutamine as substrate incubated for 60 mins by NADH/NADPH-based absorbance analysis.

The nature of series [5]: Metabolic stability in human liver microsomes assessed as half life at 10 uM by LC-MS/MS analysis. The conditions noted are these: for half-life at 10 µM: liver microsomes. The class given is ADME, Microsome.
For series [6], the system named is MDA-MB-436. The series is described as follows: Antiproliferative activity against human MDA-MB-436 cells overexpressing GLS1 assessed as inhibition of cell proliferation measured after 72 hrs by MTT assay. The class given is functional, cell-based. The conditions noted are these: MDA-MB-436, 72 h.
In series [7] the test system is H22. The series is described as follows: Antiproliferative activity against mouse H22 cells assessed as inhibition of cell proliferation measured after 72 hrs by MTT assay. Format: functional, cell-based. The settings on record: H22, 72 h.
Series [8] concerns the target T2, Glutaminase kidney isoform, mitochondrial (Mus musculus, UniProt D3Z7P3).
T2 sequence (D3Z7P3 whole entry): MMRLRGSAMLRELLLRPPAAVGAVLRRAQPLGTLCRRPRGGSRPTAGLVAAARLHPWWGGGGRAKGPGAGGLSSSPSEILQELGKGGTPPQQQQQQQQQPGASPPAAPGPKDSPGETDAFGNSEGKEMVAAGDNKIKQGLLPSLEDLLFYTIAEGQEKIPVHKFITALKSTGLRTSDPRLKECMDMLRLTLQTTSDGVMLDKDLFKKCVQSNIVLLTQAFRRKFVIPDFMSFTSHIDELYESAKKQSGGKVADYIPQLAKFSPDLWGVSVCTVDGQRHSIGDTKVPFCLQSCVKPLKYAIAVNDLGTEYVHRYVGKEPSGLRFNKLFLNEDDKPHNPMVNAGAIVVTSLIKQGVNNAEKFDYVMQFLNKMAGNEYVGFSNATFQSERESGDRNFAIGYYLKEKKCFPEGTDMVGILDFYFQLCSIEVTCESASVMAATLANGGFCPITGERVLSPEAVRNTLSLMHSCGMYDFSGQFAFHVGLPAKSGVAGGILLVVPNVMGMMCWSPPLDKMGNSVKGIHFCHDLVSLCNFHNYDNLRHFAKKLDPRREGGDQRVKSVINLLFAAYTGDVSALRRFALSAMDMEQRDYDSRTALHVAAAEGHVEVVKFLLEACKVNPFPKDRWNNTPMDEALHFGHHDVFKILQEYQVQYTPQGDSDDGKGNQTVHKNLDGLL
Put plainly: Inhibition of GLS1 in mouse kidney assessed as inhibition of glutamate production using glutamine as substrate incubated for 1 hr by coupled assay. The class given is tissue-based.

In series [9] the test system is HCT-116. Put plainly: Antitumor activity against human HCT-116 cells xenografted in BALB/c SPF mouse assessed as tumor growth inhibition at 100 mg/kg, ip administered BID for 21 days. Format: functional. The settings on record: time 21 day. For orientation: Xenograft models place foreign cells or tissue in a host animal.
Series [10] addresses T2, Glutaminase kidney isoform, mitochondrial. The series is described as follows: Inhibition of GLS1 in mouse brain assessed as inhibition of glutamate production using glutamine as substrate incubated for 1 hr by coupled assay. The class given is tissue-based.
A short description of series [11]: Metabolic stability in human liver microsomes assessed as parent compound remaining at 10 uM measured after 60 mins by LC-MS/MS analysis. The class given is ADME, Microsome.
A short description of series [12]: Metabolic stability in human liver microsomes assessed as parent compound remaining at 10 uM measured after 30 mins by LC-MS/MS analysis. The class given is ADME, Microsome.
In series [13] the test system is CT26. Put plainly: Antiproliferative activity against mouse CT26 cells overexpressing GLS1 assessed as inhibition of cell proliferation measured after 72 hrs by MTT assay. Format: functional, cell-based. The settings on record: CT26, 72 h.
Series [14] has as its target T1, Glutaminase kidney isoform, mitochondrial. Put plainly: Binding affinity to human GLS1 assessed as dissociation constant by surface plasmon resonance analysis.
Series [15] deals with T3, Glutaminase kidney isoform, mitochondrial (Homo sapiens) (UniProt O94925).
T3 sequence (whole entry): T1 sequence (O94925 whole entry)
The settings on record: filed as negative allosteric modulator.
Description: Binding affinity to human GLS1 assessed as stabilization of protein by measuring change in melting temperature by protein thermal shift assay

The mark [16] stands for this setting: liver microsomes, read-out: Stability.

What is called IC50 is the concentration at which inhibition is half-maximal. One may read the half-life as the time needed for the level to fall by half in the phase considered. For `O=C(Cc1ccccc1)Nc1nnc(NC2CCN(c3nnc(NC(=O)CCc4cn(Cc5ccc(C(F)(F)F)cc5)nn4)s3)CC2)s1`, the remaining at 2 h, 1 µM in series [1] was 79%. For the same compound, the IC50 stood at 0.13 µM in series [2], 0.00866 µM in series [4] and 0.51 µM in series [6]. In series [3], the microsomal CLint at 10 µM came out at 23.1 µL/min/mg. For the same compound, the half-life at 10 µM in series [5] came out at 1.27 h.

With `CO[C@@H](C(=O)Nc1nnc(NC2CCN(c3nnc(NC(=O)CCc4cn(CC5=CC=C(C(F)(F)F)CC5)nn4)s3)CC2)s1)c1ccccc1`, in [1], the remaining at 2 h, 1 µM is 91%. The IC50 in [2] was 0.35 µM; in [4] it was 0.00485 µM; in [6], 0.84 µM. For the same compound, in series [3], the microsomal CLint at 10 µM stood at 15.1 µL/min/mg. In series [5], the half-life at 10 µM is 1.91 h.

One may read the TGI as the reduction of tumour growth relative to the control group. Turning to `O=C(Cc1cccc(OC(F)(F)F)c1)Nc1ccc(CCCCc2nnc(NC(=O)Cc3ccccn3)s2)nn1`, in series [1], the remaining at 2 h, 1 µM turned out to be 85%. Also, the IC50 in series [7] was 1.34 µM; in series [8] it was 0.02 µM; in series [10], 0.02 µM; in [6] it was 0.41 µM; in series [13], 0.42 µM. In addition, the TGI in [9] is given as 50.6%. In addition, the microsomal CLint at 10 µM in series [3] turned out to be 19.5 µL/min/mg. Also, the t1/2 in series [5] (microsomes, 10 µM) came to 1.524 h. For the same compound, the Stability in series [11] (microsomes, 1 h, 10 µM) turned out to be 89%; in [12] (microsomes, 0.5 h, 10 µM) it was 98%.

As for `O=C(Cc1ccccc1)Nc1nnc(NC2CCN(c3nnc(NC(=O)c4ccn(Cc5ccc(C(F)(F)F)cc5)n4)s3)CC2)s1`, the remaining at 2 h, 1 µM in series [1] is 76%. The half-inhibitory concentration (IC50) in [2] turned out to be 0.12 µM; in series [4], 0.0174 µM; in [6], 0.53 µM. In addition, in series [3], the microsomal CLint at 10 µM came out at 25.2 µL/min/mg. Besides, the half-life at 10 µM in [5] worked out at 1.15 h.

Turning to `Cc1ccc(Cn2cc(CCC(=O)Nc3ccc(CCCCc4nnc(NC(=O)Cc5ccccn5)s4)nn3)nn2)cc1`, in [1], the remaining at 2 h, 1 µM came out at 72%. Besides, the microsomal CLint at 10 µM in series [3] turned out to be 40.2 µL/min/mg. The half-life at 10 µM in [5] was determined as 0.655 h. In addition, in series [11] (setting [16]), the remaining at 1 h, 10 µM turned out to be 35%. The remaining at 0.5 h, 10 µM in series [12] (setting [16]) came to 56%.

As usually defined, the Kd is a measure of binding affinity in units of concentration. By ΔTm is commonly meant the shift of the melting midpoint relative to a reference. For the compound `CO[C@H](C(=O)Nc1nnc(NC2CCN(c3nnc(NC(=O)CCc4cn(-c5ccc(C(F)(F)F)cc5)nn4)s3)CC2)s1)c1ccccc1`, the remaining at 2 h, 1 µM in series [1] was 98%. In addition, the Kd in series [14] worked out at 0.081 µM. Besides, in [15], the thermal shift (ΔTm) stood at 15.2 °C. Besides, the half-maximal inhibitory concentration (IC50) in [2] was 0.16 µM; in series [4] it was 0.0193 µM; in series [6], 0.62 µM. Besides, the microsomal CLint at 10 µM in series [3] came out at 5.57 µL/min/mg. Moreover, the half-life at 10 µM in series [5] was 5.21 h.
